From patent US20250241926A1, “HETEROCYCLIC COMPOUNDS FOR USE IN THE TREATMENT OF CANCER” (ARTIOS PHARMA LIMITED, priority 2021, published 2025)

molecular target: T1, Human Polθ polymerase domain (aa1820-2590) (Homo sapiens, UniProt O75417); assay: Polθ Polymerase Domain Kinact/Kl Assay (PicoGreen); assay type: biochemical; settings: covalent inhibitors, kobs vs [I] fit, 0.8 nM Polθ, 100 nM DNA substrate
T1 construct: Human Polθ polymerase domain (aa1820-2590) was expressed in E. Coli; made in house; host or cells: E. coli
T1 sequence (O75417 1820-2590): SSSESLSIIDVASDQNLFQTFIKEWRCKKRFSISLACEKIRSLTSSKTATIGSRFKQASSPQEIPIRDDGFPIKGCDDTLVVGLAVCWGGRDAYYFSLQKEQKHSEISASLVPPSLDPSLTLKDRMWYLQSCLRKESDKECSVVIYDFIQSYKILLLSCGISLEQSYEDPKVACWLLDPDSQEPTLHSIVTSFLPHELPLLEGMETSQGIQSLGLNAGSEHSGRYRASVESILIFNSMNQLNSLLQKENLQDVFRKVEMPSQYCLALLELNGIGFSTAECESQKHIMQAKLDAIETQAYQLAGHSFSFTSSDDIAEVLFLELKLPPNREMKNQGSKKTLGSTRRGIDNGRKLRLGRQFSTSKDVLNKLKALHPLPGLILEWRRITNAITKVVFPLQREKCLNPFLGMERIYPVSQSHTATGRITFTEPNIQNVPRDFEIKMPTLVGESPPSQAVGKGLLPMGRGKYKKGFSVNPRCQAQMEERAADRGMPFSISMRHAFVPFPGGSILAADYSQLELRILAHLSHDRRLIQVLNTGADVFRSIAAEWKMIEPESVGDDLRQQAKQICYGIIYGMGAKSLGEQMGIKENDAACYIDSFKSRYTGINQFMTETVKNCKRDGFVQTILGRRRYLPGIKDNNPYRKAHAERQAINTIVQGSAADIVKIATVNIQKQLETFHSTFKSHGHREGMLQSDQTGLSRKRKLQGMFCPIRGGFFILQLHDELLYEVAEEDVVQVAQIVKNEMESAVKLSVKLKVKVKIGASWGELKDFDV
Protocol: Polθ Polymerase Domain Kinact/Kl Assay
A PicoGreen assay was used to measure the Kinact and Kl values of covalent compounds that inhibit the activity of Polθ in vitro.
Human Polθ polymerase domain (aa1820-2590) was expressed in E. Coli, purified, aliquoted and stored at −80° C. until required. Polθ substrate was generated from a 1.2:1 mix of DNA II Short to DNA II Long to give a final concentration of […] substrate in annealing buffer (20 mM Tris pH 7.5, 50 mM NaCl). The substrate was heated in 50 mL aliquots to 95° C. in a heating block for 5 min before the heating block switched off, the reaction left to cool to rt and stored at −20° C. until required.
Assay measurements were performed with 1× buffer comprising 25 mM Tris pH 7.5, 12.5 mM NaCl, […], 5% (v/v) glycerol, 0.01% v/v Triton x-100, 0.1 mg/ml BSA, 1 mM DTT. Test compounds were prepared by dilution in 100% DMSO to give a 12 μM intermediate stock of each (100× final top concentration). 100 nL of 23× 1:1.5-fold serial dilutions and a DMSO only control were dispensed using the Tecan dispenser into Greiner 384 well black low volume plates (product code 784076). DMSO concentration was maintained at 1% of the final assay volume by back filling with DMSO.
2× Working stock of substrate (200 nM of DNA substrate and […] dNTPs) and enzyme (1.4 nM Polθ) were made up in assay buffer. 5 μL/well of both enzyme and substrate 2× solutions were dispensed using a Tempest dispenser (Formulatrix) into assay plates that had been pre-dispensed with compound to give a final assay concentration of 100 nM DNA substrate, […] dNTPs and 0.8 nM Polθ. To stop the reaction, […] of a solution containing 25 mM Tris-HCl pH 7.5 and 20 mM EDTA was added at […] (t=0, 2.5, 5, 7.5, 10, 12.5, 15, 20, 25, 30, 35, 40, 45, 50, 55 and 60 min) using the Tempest's time delay function. The plates were covered during the time course to prevent evaporation. After completing the assay, 5 μL of detection reagent (25 mM Tris-HCl pH 7.5 and 2.5% (v/v) PicoGreen) was dispensed into the wells using a Tempest liquid handler (Formulatrix) and plates subsequently read on the CLARIOstar Plus (BMG Labtech) using the default optical settings for fluorescein and the auto gain/focus settings.
All data analysis was carried out using GraphPad Prism V. 8 (GraphPad Software Inc, San Diego, CA) Time course data for each inhibitor concentration was fitted to equation 1 to determine kobs values.^1 Any time points where the control (DMSO alone) reaction was no longer linear were excluded from the analysis.
A secondary plot of kobs vs [I] is used to determine the Kinact and Kl parameters (for a 2-step covalent inhibitor) by fitting to equation 2.1
[formula] • 1) Evaluation of Enzyme Inhibitors in Drug Discovery (Ch9), R. A Copeland, Wiley, 2nd Edition 2013.

Compound	kinact/KI
(S)-2-((6-(2-(4-(1-Acrylo- ylazetidin-3-yl)piperazin- 1-yl)ethyl)-7-fluoro-1- methyl-2-oxo-1,2,3,4,5,6- hexahydrobenzo[b][1,4] diazocin-3-yl)amino)-6- methyl-4-(trifluorometh- yl)nicotinonitrile [Example 11]	500000 M⁻¹ s⁻¹
C=CC(=O)N1CCN2CCN(CCN3CC[C@H](Nc4nc(C)cc(C(F)(F)F)c4C#N)C(=O)N(C)c4cccc(F)c43)CC2C1 (mixture of isomers) [Example 72B, 2-(((S)-6-(2-((S/R)-8-acryloyloctahydro-2H-pyrazino[1,2-a]pyrazin-2-yl)ethyl)-7-fluoro-1-methyl-2-oxo-1,2,3,4,5,6-hexahydrobenzo[b][1,4]diazocin-3-yl)amino)-6-methyl-4-(trifluoromethyl)nicotinonitrile]	630000 M⁻¹ s⁻¹
2-(((S)-6-(2-((S)-4-(1- Acryloylazetidin-3-yl)-2- methylpiperazin-1-yl)eth- yl)-7-fluoro-1-methyl-2- oxo-1,2,3,4,5,6-hexahydro- benzo[b][1,4]diazocin-3- yl)amino)-6-methyl-4- (trifluoromethyl)nicotino- nitrile [Example 14]	780000 M⁻¹ s⁻¹

same assay, conditions: covalent inhibitors, kobs vs [I] fit, 0.8 nM Polθ, 100 nM DNA substrate, read-out: Kinact/KI

Compound	kinact/KI
C=CC(=O)N1CC2(CN(CCN3CC[C@H](Nc4nc(C)cc(C(F)(F)F)c4C#N)C(=O)N(C)c4ccc(Cl)cc43)C2)C1 [Example 7, (S)-2-((6-(2-(6-Acryloyl-2,6-diazaspiro[3.3]heptan-2-yl)ethyl)-8-chloro-1-methyl-2-oxo-1,2,3,4,5,6-hexahydrobenzo[b][1,4]diazocin-3-yl)amino)-6-methyl-4-(trifluoromethyl)nicotinonitrile]	460000 M⁻¹ s⁻¹
C=CC(=O)N1CC2(CCCN(CCN3CC[C@H](Nc4nc(C)cc(C(F)(F)F)c4C#N)C(=O)N(C)c4cccc(F)c43)C2)C1 [Example 9, (S)-2-((6-(2-(2-Acryloyl-2,6-diazaspiro[3.5]nonan-6-yl)ethyl)-7-fluoro-1-methyl-2-oxo-1,2,3,4,5,6-hexahydrobenzo[b][1,4]diazocin-3-yl)amino)-6-methyl-4-(trifluorometh-yl)nicotinonitrile]	300000 M⁻¹ s⁻¹
C#CCOC(=O)N1CCN(CCN2CC[C@H](Nc3nc(C)cc(C(F)(F)F)c3C#N)C(=O)N(C)c3cccc(F)c32)CC12CN(C(=O)/C=C/CN(C)C)C2 [Example 27, (S,E)-Prop-2-yn-1-yl 8-(2-(4-((3-cyano-6-methyl-4-(trifluoromethyl)pyridin-2-yl)amino)-10-fluoro-6-methyl-5-oxo-3,4,5,6-tetrahydrobenzo[b][1,4]diazocin-1(2H)-yl)ethyl)-2-(4-(dimethylamino)but-2-enoyl)-2,5,8-triazaspiro[3.5]nonane-5-carboxylate]	940000 M⁻¹ s⁻¹
Cc1cc(C(F)(F)F)c(C#N)c(N[C@H]2CCN(CCN(C)C(=O)C3CN(C(=O)/C=C/CN(C)C)C3)c3c(F)cccc3N(C)C2=O)n1 [Example 29, (S,E)-N-(2-(4-((3-Cyano-6-methyl-4-(trifluoromethyl)pyridin-2-yl)amino)-10-fluoro-6-methyl-5-oxo-3,4,5,6-tetrahydrobenzo[b][1,4]diazocin-1(2H)-yl)ethyl)-1-(4-(dimethylamino)but-2-enoyl)-N-methylazetidine-3-carboxamide]	1.2e+06 M⁻¹ s⁻¹
C=CC(=O)N1CC(N2CCN(CCN3CC[C@H](Nc4nc(C)cc(C(F)(F)F)c4C#N)C(=O)N(C)c4cccc(F)c43)C[C@@H]2C)C1 [Example 17, 2-(((S)-6-(2-((S)-4-(1-Acryloylazetidin-3-yl)-3-methylpiperazin-1-yl)-ethyl)-7-fluoro-1-methyl-2-oxo-1,2,3,4,5,6-hexa-hydrobenzo[b][1,4]diazocin-3-yl)amino)-6-methyl-4-(trifluorometh-yl)nicotinonitrile]	570000 M⁻¹ s⁻¹
Cc1cc(C(F)(F)F)c(C#N)c(N[C@H]2CCN(CCN3CCN(C(=O)/C=C/CN(C)C)CC3)c3ccccc3N(C)C2=O)n1 [Example 5, (S,E)-2-((6-(2-(4-(4-(Dimethylamino)but-2-enoyl)piperazin-1-yl)ethyl)-1-methyl-2-oxo-1,2,3,4,5,6-hexahydrobenzo[b][1,4]diazocin-3-yl)amino)-6-methyl-4-(trifluoromethyl)nicotinonitrile]	110000 M⁻¹ s⁻¹

Results, then the compound that gave them:

kinact/KI	Compound
920000 M⁻¹ s⁻¹	Cc1cc(C(F)(F)F)c(C#N)c(N[C@H]2CCN(CCN(C)C(=O)C3CN(C(=O)/C=C/CN(C)C)C3)c3ccccc3N(C)C2=O)n1 [Example 31, (S,E)-N-(2-(4-((3-Cyano-6-methyl-4-(trifluoromethyl)pyridin-2-yl)amino)-6-methyl-5-oxo-3,4,5,6-tetrahydrobenzo[b][1,4]diazocin-1(2H)-yl)ethyl)-1-(4-(dimethylamino)but-2-enoyl)-N-methylazetidine-3-carboxamide]
1.8e+06 M⁻¹ s⁻¹	C=CC(=O)N1CC2(CN(CCN3CC[C@H](Nc4nc(C)cc(C(F)(F)F)c4C#N)C(=O)N(C)c4cccc(Cl)c43)C[C@@H](C)N2)C1 [Example 64, 2-(((S)-6-(2-((R)-2-Acryloyl-6-methyl-2,5,8-triazaspiro[3.5]nonan-8-yl)ethyl)-7-chloro-1-methyl-2-oxo-1,2,3,4,5,6-hexahydrobenzo[b][1,4]diazocin-3-yl)amino)-6-methyl-4-(trifluoromethyl)nicotinonitrile]
700000 M⁻¹ s⁻¹	Cc1cc(C(F)(F)F)c(C#N)c(N[C@H]2CCN(CCCOC3CN(C(=O)/C=C/[C@@H]4CCCN4C)C3)c3c(F)cccc3N(C)C2=O)n1 [Example 54, 2-(((S)-7-Fluoro-1-methyl-6-(3-((1-((E)-3-((S)-1-methylpyrrolidin-2-yl)acryloyl)azetidin-3-yl)oxy)propyl)-2-oxo-1,2,3,4,5,6-hexahydrobenzo[b][1,4]diazocin-3-yl)amino)-6-methyl-4-(trifluoromethyl)nicotinonitrile]
1.3e+06 M⁻¹ s⁻¹	C=CC(=O)N1CC2(CN(CCN3CC[C@H](Nc4nc(C)cc(C(F)(F)F)c4C#N)C(=O)N(CC)c4cccc(F)c43)CCN2)C1 [Example 70, (S)-2-((6-(2-(2-Acryloyl-2,5,8-triazaspiro[3.5]nonan-8-yl)ethyl)-1-ethyl-7-fluoro-2-oxo-1,2,3,4,5,6-hexahydrobenzo[b][1,4]diazocin-3-yl)amino)-6-methyl-4-(trifluoromethyl)nicotinonitrile]
860000 M⁻¹ s⁻¹	C=CC(=O)N1CC2(CN(CCN3CC[C@H](Nc4nc(C)cc(C(F)(F)F)c4C#N)C(=O)N(C)c4cccc(F)c43)C[C@@H](C)N2)C1 [Example 63, 2-(((S)-6-(2-((R)-2-Acryloyl-6-methyl-2,5,8-triazaspiro[3.5]nonan-8-yl)ethyl)-7-fluoro-1-methyl-2-oxo-1,2,3,4,5,6-hexahydrobenzo[b][1,4]diazocin-3-yl)amino)-6-methyl-4-(trifluoromethyl)nicotinonitrile]
